Experimental data reported in US4248883A, “1-(3-Mercapto-2-methylpropanoyl)prolyl amino acid derivatives and salts thereof, processes for their preparation, and pharmaceutical compositions containing such compounds” (Dainippon Pharmaceutical Co., Ltd., priority 1978, dated 1981).
Where two headings read alike, the source gives them in different places.

Columns and labels:
[1] = system: Goldblatt two-kidney renal hypertensive rats; assay: Test 1: antihypertensive activity, oral, tail-plethysmographic blood pressure in Goldblatt two-kidney renal hypertensive rats; type: in vivo, rat (male STD Wistar strain); settings: for change in vivo at 100 µmol/kg: Rattus norvegicus; for Peak time (time at which the maximum hypotensive effect was observed): renal hypertensive rats; for antihypertensive effect time course relative to compound 1 (SQ-14225), FIGS. 1 and 2: single oral, 0.015 millimole/kg and 0.1 millimole/kg, mean of six animals
From the text: The contralateral kidney and its renal artery were left intact. The animals were maintained on commercial rat chow and tap water ad libitum.
In each Figure, the ordinate represents the changes in blood pressure (mmHg) and the abscissa, the time (hours) elapsed after oral administration.

mice = assay: Test 2: toxicity (acute LD50 in mice); settings: mice
From the text: (§1) Male STD-ddY strain mice, weighing 21 to 24 grams, were used.

in vivo = settings: mouse, in vivo
From the text: as §1

[2] = system: angiotensin I-converting enzyme; settings: Biochemistry, 16, 5484 (1977); cited from earlier work
[3] = system: experimental hypertensive animals; settings: Science 196, 441 (1977); cited from earlier work
[4] = system: angiotensin I-converting enzyme; settings: Science 196, 441 (1977); cited from earlier work
[5] = oral, 0.1 millimole/kg, 7 hours after administration, % of initial blood pressure, read-out: Change in blood pressure, 7 hours after administration (%)
[6] = oral, 0.1 millimole/kg, at peak time, % of initial blood pressure, read-out: Change in blood pressure, peak time (%)
[7] = oral, 0.1 millimole/kg, 7 hours after administration
[8] = oral, 0.1 millimole/kg, at peak time
[9] = oral, 0.1 millimole/kg, positive = decrease

Row | Structure (SMILES) | change in vivo at 100 µmol/kg [1, 5] [%] | change in vivo at 100 µmol/kg [1, 6] [%] | Change in blood pressure, 7 hours after administration [1, 7] [mmHg] | Change in blood pressure, peak time [1, 8] [mmHg] | Peak time (time at which the maximum hypotensive effect was observed) ([1]; oral, 0.1 millimole/kg) [h] | antihypertensive effect time course relative to compound 1 (SQ-14225), FIGS. 1 and 2 [1] | toxicity (in words) (mice) | LD50 (in vivo; iv) [mg/kg] | LD50 (in vivo; po) [mg/kg] | change in vivo at 100 µmol/kg ([1]; po, 7 h, read-out: Change in blood pressure, 7 hours after administration (%)) [%] | change in vivo at 100 µmol/kg ([1]; po, read-out: Change in blood pressure, peak time (%)) [%] | decrease in initial blood pressure at 7 hours after medication [1, 9] [%] | maximum hypotensive response (decrease in initial blood pressure) [1, 9] [%] | inhibition of angiotensin I-converting enzyme in vitro [2] | antihypertensive activity in experimental hypertensive animals [3] | inhibitory activity in vivo on angiotensin I-converting enzyme [4] | reduction of blood pressures (in words) ([1]; oral, 0.1 millimole/kg)
1 | CC(=O)SC[C@@H](C)C(=O)N1CCC[C@H]1C(=O)N[C@@H](Cc1ccccc1)C(=O)O [A, 1-(D-3-Acetylthio-2-methylpropanoyl)-L-prolyl-L-phenylalanine] | -16 | -17 | -33 | -35 | 5 | milder and more prolonged antihypertensive effect | very weak | > 1000 | > 6000 | – | – | – | – | – | – | – | –
2 | CCC(=O)SC[C@@H](C)C(=O)N1CCC[C@H]1C(=O)N[C@@H](Cc1ccccc1)C(=O)O [B, 1-(D-3-Propanoylthio-2-methylpropanoyl)-L-prolyl-L-phenylalanine] | -17 | -18 | -36 | -40 | 5 | milder and more prolonged antihypertensive effect | very weak | > 1000 | > 6000 | – | – | – | – | – | – | – | –
3 | C[C@H](CSC(=O)C(C)(C)C)C(=O)N1CCC[C@H]1C(=O)N[C@@H](Cc1ccccc1)C(=O)O [C, 1-[D-3-(2,2-Dimethylpropanoyl)thio-2-methylpropanoyl]-L-prolyl-L-phenylalanine] | -18 | -20 | -37 | -41 | 5 | – | – | – | – | – | – | – | – | – | – | – | –
4 | C[C@H](CS)C(=O)N1CCC[C@H]1C(=O)O [Compound 1, 1-(D-3-Mercapto-2-methylpropanoyl)-L-proline, reference compound] | – | – | -15 | -35 | – | – | – | – | – | -8 | -18 | 8 | 18 | particularly good inhibitor of angiotensin I-converting enzyme | superior antihypertensive activity | potent inhibitory activity in vivo | –
5 | C[C@H](CS)C(=O)N1CCC[C@H]1C(N)=O [Compound 2, 1-(D-3-Mercapto-2-methylpropanoyl)-L-proline amide, reference compound] | -1 | -3 | -1 | -5 | 2 | – | – | – | – | – | – | – | – | – | – | – | did not reduce blood pressures
6 | CC(=O)SC[C@@H](C)C(=O)N1CCC[C@H]1C(N)=O [Compound 3, 1-(D-3-Acetylthio-2-methylpropanoyl)-L-proline amide, reference compound] | -2 | -4 | -4 | -7 | 2 | – | – | – | – | – | – | – | – | – | – | – | did not reduce blood pressures
7 | CC(C)C(=O)SC[C@@H](C)C(=O)N1CCC[C@H]1C(=O)N[C@@H](Cc1ccccc1)C(=O)O [D, 1-[D-3-(2-Methylpropanoyl)thio-2-methylpropanoyl]-L-prolyl-L-phenylalanine] | -14 | -18 | -29 | -37 | 5 | – | – | – | – | – | – | – | – | – | – | – | –
8 | CCSSC[C@@H](C)C(=O)N1CCC[C@H]1C(=O)N[C@@H](Cc1ccccc1)C(=O)O [E, 1-(D-3-Ethyldithio-2-methylpropanoyl)-L-prolyl-L-phenylalanine] | -19 | -19 | -38 | -38 | 7 | – | – | – | – | – | – | – | – | – | – | – | –
9 | C[C@H](CSC(=O)c1ccccc1)C(=O)N1CCC[C@H]1C(=O)N[C@@H](Cc1ccccc1)C(=O)O [F, 1-(D-3-Benzoylthio-2-methylpropanoyl)-L-prolyl-L-phenylalanine] | -15 | -15 | -31 | -31 | 5 | – | – | – | – | – | – | – | – | – | – | – | –
10 | COC(=O)[C@H](Cc1ccc(O)cc1)NC(=O)[C@@H]1CCCN1C(=O)[C@H](C)CSC(C)=O [G, 1-(D-3-Acetylthio-2-methylpropanoyl)-L-prolyl-L-tyrosine methyl ester] | -15 | -17 | -29 | -33 | 5 | – | – | – | – | – | – | – | – | – | – | – | –
11 | CCOC(=O)[C@H](Cc1ccc(O)cc1)NC(=O)[C@@H]1CCCN1C(=O)[C@H](C)CSC(C)=O [H, 1-(D-3-Acetylthio-2-methylpropanoyl)-L-prolyl-L-tyrosine ethyl ester] | -14 | -17 | -29 | -34 | 5 | – | – | – | – | – | – | – | – | – | – | – | –
12 | CCOC(=O)[C@H](Cc1c[nH]c2ccccc12)NC(=O)[C@@H]1CCCN1C(=O)[C@H](C)CSC(C)=O [I, 1-(D-3-Acetylthio-2-methylpropanoyl)-L-prolyl-L-tryptophan ethyl ester] | -14 | -16 | -26 | -30 | 5 | – | – | – | – | – | – | – | – | – | – | – | –
13 | CCOC(=O)[C@H](CCSC)NC(=O)[C@@H]1CCCN1C(=O)[C@H](C)CSC(C)=O [J, 1-(D-3-Acetylthio-2-methylpropanoyl)-L-prolyl-L-methionine ethyl ester] | -13 | -15 | -27 | -30 | 5 | – | – | – | – | – | – | – | – | – | – | – | –
